PMC4391747 (Science translational medicine, 2012)

Columns and labels:
[1] = Solubility of MIV-150 in ring polymer; format: physicochemical
[2] = rat, in vivo; cited from earlier work

CCC(=O)c1ccc(F)c([C@@H]2C[C@@H]2NC(=O)Nc2ccc(C#N)cn2)c1O [MIV-150]
Solubility of MIV-150 in EVA-40 ([1]; DSC): partially soluble | Solubility of MIV-150 in silicone ([1]; DSC of formulated ring segments and release studies with micronized MIV-150): insoluble | Time within which absorbed MIV-150 is cleared [2]: ≤ 12 h
